Starred links: 1 amine or outer side, 2 acyl side, 3 side chain; linkers in the order of their positions; H or OH if unused. Positions of bridges follow the written chain, without caps; N, C: chain ends. Non-standard residues stand in square brackets, D forms with d. Residues, ends and D or L forms follow the SMILES beside them. Chains are numbered I, II in the order given. Actinocin(9to1) = Cc1c2oc3c(C)ccc(C(=O)[*:1])c3nc-2c(C(=O)[*:2])c(N)c1=O; NMeV = CN[C@H](C(=O)O)C(C)C; Sar = CNCC(=O)O
Experiments:
Collagenase = Collagenase activity in culture media, chromogenic substrate hydrolysis; assay type: biochemical; details: aliquots of media, five days, plain matrix = 100
Procedure: (§1) Prefabricated collagen matrices were placed in different antiproliferative drug solutions until complete saturation occurred. […] The collagen matrices were saturated with these compounds at a concentration of 25 μg/ml lyophilized, washed with 0.066 M phosphate buffer of pH 7.4 at 37° C. for 24 hours and cut in the shape of a disc with density of compound of about 5 μg/cm^2. After washing, sterile discs 15 mm in diameter were placed in a 24-well culture plate, and cells were seeded at a density of 5,000/cm^2. Five days later, cell number was counted and enzymatic activity evaluated in the aliquots of media by chromogenic substrate hydrolysis and spectrophotometry. Among the tested agents in this comparative in vitro test, paclitaxel and rapamycin (sirolimus) performed similarly.

Fibroblast = Fibroblast inhibition on drug-saturated collagen matrix discs; assay type: cell-based; details: collagen matrix disc, compound about 5 μg/cm^2, cells counted five days later
Procedure: as §1, with “spectrophotometry.” for “spectrophotometry. Among the tested agents in this comparative in vitro test, paclitaxel and rapamycin (sirolimus) performed similarly.”

Elastase = Elastase activity in culture media, chromogenic substrate hydrolysis; assay type: biochemical; details: aliquots of media, five days, plain matrix = 100
Procedure: as §1, with “spectrophotometry.” for “spectrophotometry. Among the tested agents in this comparative in vitro test, paclitaxel and rapamycin (sirolimus) performed similarly.”

SMC = assay: Smooth muscle cell inhibition on drug-saturated collagen matrix discs; assay type: cell-based; details: collagen matrix disc, compound about 5 μg/cm^2, cells counted five days later
Procedure: as §1, with “spectrophotometry.” for “spectrophotometry. Among the tested agents in this comparative in vitro test, paclitaxel and rapamycin (sirolimus) performed similarly.”

smooth muscle cells = assay: Growth of smooth muscle cells seeded on collagen matrices; assay type: cell-based; details: with changes of media, 7 days observation
Procedure: To evaluate this parameter, smooth muscle cells at a density of 5,000 cells/cm^2 are seeded onto control tissue culture surface and testing matrices.

[1] = In vitro elution of dexamethasone from collagen matrix; details: by HPLC
[2] = test system: Human Smooth Muscle Cells; assay: [3H]-thymidine uptake assay, human smooth muscle cells; assay type: cell-based
Procedure: (§2) Human smooth muscle cells and endothelial cells (Cambrex Corp., formerly Clonetics Corp., East Rutherford, N.J.) were seeded (100,000 cells) in 24-well plates overnight. Both cell types were grown and maintained in Opti-MEM (Invitrogen, Carlsbad, Calif.) and 5% fetal bovine serum at 37° C. in a 5% carbon dioxide and 95% atmospheric air. […] Each cell type was allowed to grow for […], last four hours in the presence of [^3H]-thymidine.
(§3) Proliferation of cells was quantified as new DNA synthesis using [^3H]-thymidine uptake assay. After 72 hours of culture, cells were washed twice with cold phosphate buffered saline (PBS), and 1 ml of methanol was added to the contents of each well. The plates were kept at 4° C. for 60 minutes, the cells then washed once with cold PBS, and 500 μl of 0.2 m M NaOH was added to each well, and the plates kept at 4° C. for 30 minutes. The contents of each well were transferred into scintillation vials, and liquid scintillation fluid was added to quantify radioactivity using a liquid scintillation counter and the results expressed as counts per minute. Results are shown in Tables 12 and 13 and corresponding FIGS. 16 and 17, respectively.

Human Endothelial Cells = assay: [3H]-thymidine uptake assay, human endothelial cells; assay type: cell-based
Procedure: as §2, §3

smooth muscle cell [3] = assay: Inhibitory concentrations for smooth muscle cell in culture media
[4] = test system: PTFE vascular graft AV loop, venous anastomosis; assay: Porcine PTFE arterio-venous graft model with perivascular rapamycin collagen sleeve; assay type: in vivo; details: pigs
Procedure: A proof of principle study was performed using a porcine model. A total of six pigs were studied, two as controls and four as treated. A 6 mm PTFE vascular graft was anastomosed between the carotid artery on one side and the contralateral jugular vein. This created an arterio-venous (AV) loop that is similar in construction to the human hemodialysis access loop.
The animals were euthanized and the relevant segments dissected. […] Tissues from treated and untreated animals were obtained, and RNA was prepared and reverse transcribed to cDNA, which was amplified for housekeeping gene b-actin and p21 by PCR.

[5] = test system: PTFE A-V graft, venous anastamosis; assay: PTFE A-V graft study, histological scoring of graft explants; assay type: in vivo
Description: A 6.0 mm PTFE graft was anastamosed between the carotid artery and the jugular vein. A total of 19 animals were utilized for this study. At the time of surgical construction of the A-V graft, collagen matrix with or without the drug was implanted at the site of venous anastamosis. Five animals served as controls (Group A, plain collagen matrix, no drug); the remaining 14 animals received treatment. They were divided into two equal groups (B and C) of seven animals each. […] Animals (n=13) were euthanized after 1 month. Tissues were formalin fixed and sent for histology.
Histological assessment of graft explants was performed by examining the following components: (1) the venous anastamotic site; (a) luminal and (b) adventitial surfaces, (2) the venous end away from the anastamosis; (c) luminal and (d) adventitial surfaces and (3) the PTFE graft; (e) luminal and (f) abluminal surfaces away from the anastamosis (FIG. 2). The following parameters were evaluated: intimal thickening, inflammation, thrombus, fibrosis, hemorrhage/fibrin and calcification or any other pathological changes observed. Histological evaluation was scored on a 0 through 4 scale, where 0=no significant change, 1=minimal, 2=mild, 3=moderate and 4=severe.
P-values obtained from semiquantitative analysis of histological findings using ANOVA (t-test unpaired).

[6] = Rate of drug release from collagen matrix in vitro, batch assay; assay type: physicochemical; details: collagen matrix saturated with the drug
Procedure: Aliquots are collected at various time intervals from the wells. A combination of dispersed and conjugated forms is also prepared. […] The samples are placed in wells and 1 ml of elution media containing serum are added. Aliquots are taken every hour.
These measurements are made using batch assay and, therefore, represent release rates at 0 ml/min flow rate. The results are tabulated in Table 7 and graphically illustrated in FIG. 14. Concentrations of the antiproliferative drug are in μg/ml.

smooth muscle cell [7] = assay: Heparin inhibition of smooth muscle cell proliferation; assay type: cell-based
Description: In addition, diffusion of heparin from the sleeve can prevent thrombotic events on the inner surface of the shunt and damaged vessel wall for longer periods of time. Furthermore, the concentration of soluble heparin can be increased up to 20,000 U/cm^2 without changing the mechanical characteristics of the matrix. Therefore, anti-smooth muscle cell proliferation as well as antithrombotic effect can be prolonged.

[8] = In vitro elution of heparin from collagen-fibrin sleeve with rapamycin and heparin; assay type: physicochemical; details: for Eluted Heparin Mass: buffer replenished each day
Description: Combining macro- and micro-porosity may increase capacity of the device. Collagen and fibrin matrices were mixed to obtain such a combination. In addition, good mechanical characteristics of collagen improved stability of fibrin.
The collagen fibrin sheaths loaded with medicine (thickness 2 mm) were formed as tubular structures and externally crosslinked using high a concentration of glutaraldehyde (25%) for one minute. This sleeve was made planar on ten occasions, and the spiral shape was restored each time. […] In vitro elution of heparin continues for seven days. Heparin concentration was measured as in Example 10. Buffer for the dilution was replenished each day.

Molecule	Collagenase Activity % (Collagenase)	Fibroblast Inhibition % (Fibroblast)	Elastase Activity % (Elastase)	SMC Inhibition % (SMC)	effect on proliferation (new DNA synthesis) [2]	effect on proliferation (new DNA synthesis) (Human Endothelial Cells)	also measured
Cc1c2oc3c(C)ccc(C(=O)N[C@@H]4C(=O)N[C@H](C(C)C)C(=O)N5CCC[C@H]5C(=O)N(C)CC(=O)N(C)[C@@H](C(C)C)C(=O)O[C@@H]4C)c3nc-2c(C(=O)N[C@@H]2C(=O)N[C@H](C(C)C)C(=O)N3CCC[C@H]3C(=O)N(C)CC(=O)N(C)[C@@H](C(C)C)C(=O)O[C@@H]2C)c(N)c1=O [Actinomycin D] (I: T[dV]P[Sar][NMeV] / II: T[dV]P[Sar][NMeV]; ester I:1-I:C, II:1-II:C; linker I:N-II:N via Actinocin(9to1))	55 ± 9%	35 ± 8%	84 ± 11%	44 ± 11%			duration of suppression of cell growth (smooth muscle cells): suppresses cell growth for only a short period of time
C[C@@H]1C[C@H]2[C@@H]3CCC4=CC(=O)C=C[C@]4(C)[C@@]3(F)[C@@H](O)C[C@]2(C)[C@@]1(O)C(=O)CO [Dexamethasone]							Chemical stability through sheet formation, drying storage, and elution process [1]: confirmed
CN(Cc1cnc2nc(N)nc(N)c2n1)c1ccc(C(=O)N[C@@H](CCC(=O)O)C(=O)O)cc1 [Methotrexate]	23 ± 12%	28 ± 6%	14 ± 3%	32 ± 9%			
CC(=O)O[C@H]1C(=O)[C@@]2(C)[C@H]([C@H](OC(=O)c3ccccc3)[C@]3(O)C[C@H](OC(=O)[C@H](O)[C@@H](NC(=O)c4ccccc4)c4ccccc4)C(C)=C1C3(C)C)[C@]1(OC(C)=O)CO[C@@H]1C[C@@H]2O [Paclitaxel]	98 ± 5%	62 ± 11%	90 ± 4%	88 ± 6%	inhibit proliferation	inhibit proliferation	
CO[C@H]1C[C@@H]2CC[C@@H](C)[C@@](O)(O2)C(=O)C(=O)N2CCCC[C@H]2C(=O)O[C@H]([C@H](C)C[C@@H]2CC[C@@H](O)[C@H](OC)C2)CC(=O)[C@H](C)/C=C(\C)[C@@H](O)[C@@H](OC)C(=O)[C@H](C)C[C@H](C)/C=C/C=C/C=C/1C [Rapamycin, (3S,6R,7E,9R,10R,12R,14S,15E,17E,19E,21S,23S,26R,27R,34aS)-9,10,12,13,14,21,22,23,24,25,26,27,32,33,34,34a-hexadecahydro-9,27-dihydroxy-3-[(1R)-2[(1S,3R,4R)-4-hydroxy-3-methoxycyclohexyl]-1-methylethyl]10,21-dimethoxy-6,8,12,14,20,26-hexamethyl-23,27-epoxy-3H-pyrido[2,1-c][1,4] oxaazacyclohentriacontine-1,5,11,28,29 (4H,6H,31H)-pentone]	137 ± 8%	90 ± 12%		94 ± 5%	inhibit proliferation	inhibit proliferation	Inhibitory concentrations for smooth muscle cell (smooth muscle cell [3]): 0.001 to 0.005 µg/mL; Expression of p21 mRNA in venous tissue at the perianastamotic site ([4]; 30 days, PCR, not in controls): observed; neointimal hyperplasia at venous anastomosis ([4]; collagen sleeve approximately 500 μg/cm^2, 30 days): minimal to absent; luminal patency of the vein and the graft ([4]; collagen sleeve approximately 500 μg/cm^2, 30 days, vs controls): significantly higher luminal patency; duration of suppression of cell growth (smooth muscle cells): suppression of cell growth continued throughout the observation period; Collagen degradation ([5]; Dose 2 compared with the control group): significant; degree of fibrosis ([5]; control group vs. treatment groups): significant difference; degree of inflammation ([5]; treated vs controls): no statistical difference; time of peak release from saturated collagen matrix [6]: about seven
C=CC[C@@H]1/C=C(\C)C[C@H](C)C[C@H](OC)[C@H]2O[C@@](O)(C(=O)C(=O)N3CCCC[C@H]3C(=O)O[C@H](/C(C)=C/[C@@H]3CC[C@@H](O)[C@H](OC)C3)[C@H](C)[C@@H](O)CC1=O)[C@H](C)C[C@@H]2OC [Tacrolimus]					preferentially inhibit new DNA synthesis in human smooth muscle cells	sparing endothelial cells	
CN(C)[C@@H]1C(O)=C(C(N)=O)C(=O)[C@@]2(O)C(O)=C3C(=O)c4c(O)cccc4[C@@](C)(O)[C@H]3C[C@@H]12 [Tetracycline]		13 ± 5%		11 ± 8%			
Heparin							concentration that effectively inhibits smooth muscle cell proliferation (smooth muscle cell [7]): about 100 u/ml; duration of in vitro elution of heparin [8]: seven; Eluted Heparin Mass ([8]; Time 0 days): 0 u/ml; Eluted Heparin Mass ([8]; Time 1 days): 341 u/ml; Eluted Heparin Mass ([8]; Time 2 days): 275 u/ml; Eluted Heparin Mass ([8]; Time 3 days): 188 u/ml; Eluted Heparin Mass ([8]; Time 4 days): 103 u/ml; Eluted Heparin Mass ([8]; Time 5 days): 57 u/ml; Eluted Heparin Mass ([8]; Time 6 days): 24 u/ml; Eluted Heparin Mass ([8]; Time 7 days): 8 u/ml; time for which eluted heparin can significantly inhibit smooth muscle cell proliferation ([8]; from the elution profile and about 100 u/ml): at least four
